This note sets out measurements from patent US10266497B2 (ABIDE THERAPEUTICS, INC., priority 2017, dated 2019).

For one assay, the target named is T1, FAAH (Homo sapiens, UniProt O00519).
T1 sequence (O00519 1-579): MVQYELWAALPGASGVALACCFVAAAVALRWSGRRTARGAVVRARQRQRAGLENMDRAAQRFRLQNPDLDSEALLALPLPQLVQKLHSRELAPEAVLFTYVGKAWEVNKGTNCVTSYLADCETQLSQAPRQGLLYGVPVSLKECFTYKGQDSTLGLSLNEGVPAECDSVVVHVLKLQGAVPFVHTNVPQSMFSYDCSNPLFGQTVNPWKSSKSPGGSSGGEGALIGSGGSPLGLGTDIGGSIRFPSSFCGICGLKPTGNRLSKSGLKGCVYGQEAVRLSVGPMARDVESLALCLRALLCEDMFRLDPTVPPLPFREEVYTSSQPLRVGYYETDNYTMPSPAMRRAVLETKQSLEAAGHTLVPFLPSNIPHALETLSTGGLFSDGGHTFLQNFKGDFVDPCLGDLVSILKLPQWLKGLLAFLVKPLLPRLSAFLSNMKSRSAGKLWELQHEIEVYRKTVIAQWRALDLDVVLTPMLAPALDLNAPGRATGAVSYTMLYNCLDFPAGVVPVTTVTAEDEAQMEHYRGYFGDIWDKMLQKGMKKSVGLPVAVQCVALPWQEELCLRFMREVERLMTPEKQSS
Briefly: In vitro competitive activity-based protein profiling, FAAH, human. To be noted: for inhibition at 1 µM: read-out: FAAH % inh. 1 μM (human).

The target in assay [1] is T2, MAGL (Homo sapiens, UniProt Q99685).
T2 sequence (Q99685 1-303): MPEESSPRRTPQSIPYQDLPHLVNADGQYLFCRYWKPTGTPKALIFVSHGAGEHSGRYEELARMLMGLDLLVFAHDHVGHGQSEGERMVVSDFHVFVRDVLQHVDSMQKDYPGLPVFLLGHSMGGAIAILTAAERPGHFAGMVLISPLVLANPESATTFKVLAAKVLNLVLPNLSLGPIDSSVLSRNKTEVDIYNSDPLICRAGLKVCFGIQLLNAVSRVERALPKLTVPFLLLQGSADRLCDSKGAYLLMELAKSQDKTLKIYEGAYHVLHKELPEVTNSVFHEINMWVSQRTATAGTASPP
Briefly: In vitro competitive activity-based protein profiling, MAGL, human. Conditions: read-out: MAGL % inh. 1 μM (human).

Assay [2] has as its target T3, MAGL (Mus musculus, UniProt O35678).
T3 sequence (O35678 1-303): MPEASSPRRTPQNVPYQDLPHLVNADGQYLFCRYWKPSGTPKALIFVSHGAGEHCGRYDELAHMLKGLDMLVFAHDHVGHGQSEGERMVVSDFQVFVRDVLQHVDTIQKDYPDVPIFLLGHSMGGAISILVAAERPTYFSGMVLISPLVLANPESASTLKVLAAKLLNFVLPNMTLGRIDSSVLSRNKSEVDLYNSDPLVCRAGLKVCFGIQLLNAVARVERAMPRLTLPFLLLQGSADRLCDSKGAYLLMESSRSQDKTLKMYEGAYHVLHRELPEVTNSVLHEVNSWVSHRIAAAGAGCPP
Description: In vitro competitive activity-based protein profiling, MAGL, mouse. To be noted: read-out: MAGL % inh. 1 μM (mouse).

As to `O=C(O)c1ccn(C(=O)N2CCN(Cc3cccc(Oc4ccnnc4)c3)CC2)n1` [Example 177, 1-(4-(3-(pyridazin-4-yloxy)benzyl)pipera-zine-1-carbonyl)-1H-pyrazole-3-carboxylic acid], the values for the inhibition at 1 µM at FAAH and on MAGL [1] were 0 to 25% and 25 to 50%, respectively.

At FAAH, `O=C(O)c1ccn(C(=O)N2CCC3(CCN(Cc4ccc(-c5ccccc5)cc4C(F)(F)F)C3)CC2)n1` [Example 170, 1-(2-((3-(trifluoromethyl)-[1,1′-biphenyl]-4-yl)methyl)-2,8-diazaspiro[4.5]decane-8-carbonyl)-1H-pyrazole-3-carboxylic acid] registered a 50% inhibitory concentration (IC50) of 100 to 1000 nM. Further, the inhibition at 1 µM at FAAH and at MAGL [1] was above 75% in each case.

In the case of `O=C(O)c1ccn(C(=O)N2CCC3(CCCN3Cc3ccc(Cl)cc3N3CCCC3)CC2)n1` [Example 180, 1-(1-(4-chloro-2-(pyrrolidin-1-yl)benzyl)-1,8-diazaspiro[4.5]decane-8-carbonyl)-1H-pyrazole-3-carboxylic acid], the inhibition at 1 µM is 0 to 25% on FAAH and above 75% on MAGL [1].

In the case of `NC(=O)c1ccn(C(=O)N2CCN(Cc3cccc(-c4cncnc4)c3)CC2)n1` [Example 179, 1-(4-(3-(pyrimidin-5-yl)benzyl)piperazine-1-carbonyl)-1H-pyrazole-3-carboxamide], the inhibition at 1 µM at FAAH is 50 to 75%; at MAGL [1], above 75%.

Take `NC(=O)c1ccn(C(=O)N2CCC3(CCN(Cc4cc(F)cc(Cl)c4)C3)CC2)n1` [Example 178, 1-(2-(3-chloro-5-fluorobenzyl)-2,8-diazaspiro[4.5]decane-8-carbonyl)-1H-pyrazole-3-carboxamide]: the inhibition at 1 µM at FAAH and on MAGL [1] was above 75% each time.

For the molecule `NC(=O)c1ccn(C(=O)N2CCC3(CCN(Cc4cc(Cl)cc(C(F)(F)F)c4)C3)CC2)n1` [Example 196, 1-(2-(3-chloro-5-(trifluoromethyl)benzyl)-2,8-diazaspiro[4.5]decane-8-carbonyl)-1H-pyrazole-3-carboxamide], the inhibition at 1 µM on FAAH and at MAGL [1] was above 75% each time.

Consider `O=C(O)c1ccn(C(=O)N2CCC3(CCN(Cc4ccc(Cl)c(N5CCCC5)c4)C3)CC2)n1` [Example 343, 1-(2-(4-chloro-3-(pyrrolidin-1-yl)benzyl)-2,8-diazaspiro[4.5]decane-8-carbonyl)-1H-pyrazole-3-carboxylic acid], for which the inhibition at 1 µM at MAGL [2] lay within 0 to 25%; on MAGL [1], 25 to 50%.

Regarding `Cc1cn(C(=O)N2C[C@H]3C[C@H](Oc4cccc(-c5ccccc5)c4)C[C@H]3C2)nc1C(=O)O` [Example 280, 1-(trans-5-([1,1′-biphenyl]-3-yloxy)octahydro-cyclopenta[c]pyrrole-2-carbonyl)-4-methyl-1H-pyrazole-3-carboxylic acid], the inhibition at 1 µM on MAGL [2] and on MAGL [1] was above 75% throughout.

In the case of `C[C@@H]1CN(Cc2cc(F)cc(Oc3ccc(Cl)cc3)c2)CCN1C(=O)n1ccc(C(=O)O)n1` [Example 348, (R)-1-(4-(3-(4-chlorophenoxy)-5-fluorobenzyl)-2-methylpiperazine-1-carbonyl)-1H-pyrazole-3-carboxylic acid], the inhibition at 1 µM on MAGL [2] and at MAGL [1] was above 75% throughout.

`CC1(NCc2ccc(C(F)(F)F)cc2N2CCCC2)CCN(C(=O)n2ccc(C(=O)O)n2)CC1` [Example 361, 1-(4-methyl-4-((2-(pyrrolidin-1-yl)-4-(trifluoromethyl)benzyl)amino)piper-idine-1-carbonyl)-1H-pyrazole-3-carboxylic acid]: the inhibition at 1 µM at MAGL [2] and at MAGL [1] was above 75% in each case.

With `C[C@@H]1CN(Cc2cccc(OCC(C)(C)O)c2Cl)CCN1C(=O)n1ccc(C(N)=O)n1` [Example 216, (R)-1-(4-(2-chloro-3-(2-hydroxy-2-methylpropoxy)benzyl)-2-methylpiperazine-1-carbonyl)-1H-pyrazole-3-carboxamide], the inhibition at 1 µM at MAGL [2] and at MAGL [1] was above 75% throughout.

Turning to `O=C(O)c1ccn(C(=O)N2C[C@H]3C[C@@H](NCc4ccc(Oc5ccc(Cl)cc5)cc4)C[C@H]3C2)n1` [Example 363, 1-(cis-5-((4-(4-chlorophenoxy)benzyl)amino)octa-hydrocyclopenta[c]pyrrole-2-carbonyl)-1H-pyrazole-3-carboxylic acid], the inhibition at 1 µM at MAGL [2] and on MAGL [1] was 0 to 25% throughout.

For `Cc1c(CO[C@H]2C[C@@H]3CN(C(=O)n4cc(Cl)c(C(=O)O)n4)C[C@@H]3C2)cccc1C(F)(F)F` [Example 341, 4-chloro-1-(trans-5-((2-methyl-3-(trifluoromethyl)benzyl)oxy)octa-hydrocyclopenta[c]pyrrole-2-carbonyl)-1H-pyrazole-3-carboxylic acid], the inhibition at 1 µM at MAGL [2] and at MAGL [1] was above 75% each time.

On to `CC(C)(O)COc1cccc(CN2CCN(C(=O)n3ccc(C(N)=O)n3)CC2)c1Cl` [Example 37, 1-(4-(2-Chloro-3-(2-hydroxy-2-methylpropoxy)benzyl)piperazine-1-carbonyl)-1H-pyrazole-3-carboxamide], for which the inhibition at 1 µM at MAGL [2] and at MAGL [1] was above 75% in each case.

In the case of `Cc1cn(C(=O)N2CCC(C)(N(C)Cc3ccc(C(F)(F)F)cc3N3CCCC3)CC2)nc1C(=O)O` [Example 398], the inhibition at 1 µM on MAGL [2] and on MAGL [1] was above 75% each time.

For `NC(=O)c1ccn(C(=O)N2CCN(Cc3cccc(C4(C(=O)O)CCOCC4)c3)CC2)n1` [Example 455, 4-(3-((4-(3-carbamoyl-1H-pyrazole-1-carbonyl)piperazin-1-yl)methyl)phenyl) tetrahydro-2H-pyran-4-carboxylic acid], the inhibition at 1 µM on MAGL [2] and on MAGL [1] was above 75% in each case.

For the molecule `O=C(O)c1nn(C(=O)N2CCN(Cc3cccc(-c4cncnc4)c3)CC2)cc1Cl` [Example 270, 4-chloro-1-(4-(3-(pyrimidin-5-yl)benzyl)piperazine-1-carbonyl)-1H-pyrazole-3-carboxylic acid], the inhibition at 1 µM at MAGL [2] and on MAGL [1] was above 75% in each case.

Take `O=C(O)c1ccn(C(=O)N2CCN(Cc3cccc(Oc4ccc(C(F)(F)F)nc4)c3)CC2)n1` [Example 354, 1-(4-(3-((6-(trifluoromethyl)pyridin-3-yl)oxy)benzyl)piper-azine-1-carbonyl)-1H-pyrazole-3-carboxylic acid]: the inhibition at 1 µM on MAGL [2] and on MAGL [1] was above 75% in each case.

For the molecule `O=C(O)c1ccn(C(=O)N2C[C@H]3C[C@H](Oc4ccccc4-c4ccccc4)C[C@H]3C2)n1` [Example 239, 1-(trans-5-([1,1′-biphenyl]-2-yloxy)octahydro-cyclopenta[c]pyrrole-2-carbonyl)-1H-pyrazole-3-carboxylic acid], the inhibition at 1 µM on MAGL [2] and on MAGL [1] was above 75% throughout.
